# Test results as given in patent US20030215462A1, “Use of UGT inhibitors to increase bioavailability” (priority 2001, published 2003).
# Where “and” joins values, the source holds several entries; their conditions need not be identical. Identical values can stand only once.
# Experiments:
# [1] = tested on: UGT enzymes of human liver microsomes; test: Inhibition of raloxifene glucuronidation (G1, G2) in human liver microsomes; type: biochemical; settings: for % of control metabolism (SD, n = 3), raloxifene glucuronide G1 / % of control metabolism (SD, n = 3), raloxifene glucuronide G2: human liver microsomes 250 μg/ml, 15 min
# Text: (§1) Compounds were eluted using a binary solvent gradient system. […] Solvent B was methanol. […] Detection was at 280 nm.
# [2] = tested on: UGT enzymes of pooled human jejunum microsomes; test: Inhibition of estradiol (E2) glucuronidation in pooled human jejunum microsomes; type: biochemical; settings: jejunum HJ61, E2 50 μM
# Text: (§2) Compounds were eluted using a binary solvent gradient system where solvent A was dilute phosphoric acid (pH 3) and solvent B was 80:20 acetonitrile-methanol. […] Detection was at 280 nm.
# [3] = tested on: UGT enzymes of pooled human jejunum microsomes; test: Inhibition of raloxifene glucuronidation (G1, G2) in pooled human jejunum microsomes; type: biochemical; settings: jejunum HJ61; inhibitor 50 μM
# Procedure: as §1
# Standardized incubations utilized […] microsomal protein, 1 mM UDPGA and a 30 min incubation time.
# [4] = tested on: T1, UGT enzymes of human liver microsomes; test: Inhibition of 2ME2 glucuronidation (MG1, MG2) in human liver microsomes; type: biochemical; settings: liver 062101, 2ME2 50 μM
# T1 construct: other: liver 062101
# Text: as §2
# [5] = molecular target: T2, UGT1A9 (Homo sapiens, UniProt O60656); test: Inhibition of raloxifene glucuronidation by recombinant UGT1A9 Supersomes; settings: for activity at 15 min, 10 µM / activity at 15 min, 25 µM / activity at 15 min, 50 µM: human, Supersomes with recombinant human UGT1A9, pH 7.5, probe raloxifene 50 μM; for Inhibition of raloxifene glucuronidation, UGT1A9, second line per inhibitor (G2): second line (G2, metabolite not given), raloxifene 50 μM, 250 μg/ml Supersomes, 1 mM UDPGA, 15 min
# T2 sequence (O60656 26-530): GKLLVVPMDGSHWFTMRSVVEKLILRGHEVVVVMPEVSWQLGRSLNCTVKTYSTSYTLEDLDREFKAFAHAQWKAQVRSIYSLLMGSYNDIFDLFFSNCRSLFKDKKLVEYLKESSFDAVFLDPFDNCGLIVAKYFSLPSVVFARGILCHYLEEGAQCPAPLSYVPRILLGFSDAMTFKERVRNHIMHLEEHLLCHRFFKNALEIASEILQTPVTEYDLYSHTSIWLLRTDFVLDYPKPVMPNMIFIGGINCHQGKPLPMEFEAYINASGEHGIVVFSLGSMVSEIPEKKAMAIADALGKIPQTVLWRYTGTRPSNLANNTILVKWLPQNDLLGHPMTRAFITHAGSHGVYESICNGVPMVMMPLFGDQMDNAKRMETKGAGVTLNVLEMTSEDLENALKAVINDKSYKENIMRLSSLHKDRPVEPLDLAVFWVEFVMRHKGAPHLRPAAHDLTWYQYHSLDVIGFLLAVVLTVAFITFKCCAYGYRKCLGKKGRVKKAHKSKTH
# [6] = molecular target: T3, UGT1A10 (Homo sapiens, UniProt Q9HAW8); test: Inhibition of raloxifene glucuronidation by recombinant UGT1A10 Bacculosomes; settings: UGT1A10
# T3 sequence (Q9HAW8 26-530): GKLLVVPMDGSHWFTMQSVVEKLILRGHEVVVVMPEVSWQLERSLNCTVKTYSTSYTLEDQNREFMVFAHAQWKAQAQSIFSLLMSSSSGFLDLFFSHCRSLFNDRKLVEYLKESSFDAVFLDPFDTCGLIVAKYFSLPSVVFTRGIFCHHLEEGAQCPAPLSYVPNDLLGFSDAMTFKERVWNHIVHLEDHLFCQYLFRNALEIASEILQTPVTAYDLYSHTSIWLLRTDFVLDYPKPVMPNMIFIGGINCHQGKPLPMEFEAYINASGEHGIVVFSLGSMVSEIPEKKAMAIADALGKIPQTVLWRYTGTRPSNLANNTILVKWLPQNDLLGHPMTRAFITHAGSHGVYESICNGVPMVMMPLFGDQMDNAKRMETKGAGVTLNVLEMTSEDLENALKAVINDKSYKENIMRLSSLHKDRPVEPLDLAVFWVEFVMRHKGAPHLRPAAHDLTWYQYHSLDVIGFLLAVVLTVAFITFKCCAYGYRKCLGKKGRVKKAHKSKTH
# Procedure: Compounds were eluted using a binary solvent gradient system. Solvent A was water brought to pH 8 with NH4OH. Solvent B was methanol. Solvent flow rate was 1 ml/min and the column temperature was maintained at 50° C. Detection was at 280 nm. […] The system was then returned to the initial conditions and equilibrated for 3 min.
# [7] = tested on: T4, UGT enzymes of human liver microsomes; test: Inhibition of labetalol glucuronidation (LG1, LG2) in human liver microsomes; type: biochemical; settings: labetalol 50 μM
# T4 construct: residual metabolism (percentage of control), labetalol LG1; other: labetalol 50 μM; residual metabolism (percentage of control), labetalol LG1; residual metabolism (percentage of control), labetalol LG2; inhi
# [8] = inhibitor 2 μM, raloxifene 50 μM
# [9] = inhibitor 5 μM, raloxifene 50 μM
# [10] = inhibitor 10 μM, raloxifene 50 μM
# [11] = inhibitor 25 μM, raloxifene 50 μM
# [12] = inhibitor 50 μM, raloxifene 50 μM
# [13] = inhibitor 100 μM, raloxifene 50 μM
# [14] = inhibitor 500 μM, raloxifene 50 μM
# [15] = liver lot 032101, inhibitor 50 μM
# [16] = liver lot 062101, inhibitor 50 μM
# [17] = liver lot 083000, inhibitor 50 μM
# [18] = raloxifene 50 μM, inhibitor 10 μM
# [19] = raloxifene 50 μM, inhibitor 25 μM
# [20] = raloxifene 50 μM, inhibitor 50 μM
# [21] = raloxifene 50 μM, inhibitor 100 μM
structure (smiles),measurement,setting,value
O=c1c(O)c(-c2ccc(O)c(O)c2)oc2cc(O)cc(O)c12 [Quercetin],"% of control metabolism (SD, n = 3), raloxifene glucuronide G1",[1]; [8],82 (6) %
same,"% of control metabolism (SD, n = 3), raloxifene glucuronide G1",[1]; [9],69 (1) %
same,"% of control metabolism (SD, n = 3), raloxifene glucuronide G1",[1]; [10],48 (1) %
same,"% of control metabolism (SD, n = 3), raloxifene glucuronide G1",[1]; [11],18 (1) %
same,"% of control metabolism (SD, n = 3), raloxifene glucuronide G1",[1]; [12],8 (1) %
same,"% of control metabolism (SD, n = 3), raloxifene glucuronide G1",[1]; [13],6 (2) %
same,"% of control metabolism (SD, n = 3), raloxifene glucuronide G1",[1]; [14],0 (0) %
same,"% of control metabolism (SD, n = 3), raloxifene glucuronide G2",[1]; [8],78 (3) %
same,"% of control metabolism (SD, n = 3), raloxifene glucuronide G2",[1]; [9],67 (2) %
same,"% of control metabolism (SD, n = 3), raloxifene glucuronide G2",[1]; [10],50 (1) %
same,"% of control metabolism (SD, n = 3), raloxifene glucuronide G2",[1]; [11],25 (1) %
same,"% of control metabolism (SD, n = 3), raloxifene glucuronide G2",[1]; [12],15 (1) %
same,"% of control metabolism (SD, n = 3), raloxifene glucuronide G2",[1]; [13],13 (2) %
same,"% of control metabolism (SD, n = 3), raloxifene glucuronide G2",[1]; [14],0 (0) %
same,"% of control metabolism, raloxifene G1",[1]; [15],25 (1) %
same,"% of control metabolism, raloxifene G2",[1]; [15],35 (1) %
same,"% of control metabolism, raloxifene G1",[1]; [16],34 (3) %
same,"% of control metabolism, raloxifene G2",[1]; [16],35 (3) %
same,"% of control metabolism, raloxifene G1",[1]; [17],8 (1) %
same,"% of control metabolism, raloxifene G2",[1]; [17],15 (1) %
same,"% of control metabolism, raloxifene G1",[1]; [18],48 (1) %
same,"% of control metabolism, raloxifene G2",[1]; [18],50 (1) %
same,"% of control metabolism, raloxifene G1",[1]; [19],18 (1) %
same,"% of control metabolism, raloxifene G2",[1]; [19],25 (1) %
same,"% of control metabolism, raloxifene G1",[1]; [20],8 (1) %
same,"% of control metabolism, raloxifene G2",[1]; [20],15 (1) %
same,"% of control metabolism, raloxifene G1",[1]; [21],6 (2) %
same,"% of control metabolism, raloxifene G2",[1]; [21],13 (2) %
same,"residual metabolism (% of control), E2-3-β-D-glucuronide",[2]; inhibitor 25 μM,44 (5) %
same,"residual metabolism (% of control), E2-17-β-D-glucuronide",[2]; inhibitor 25 μM,72 (3) %
same,"residual metabolism (% of control), E2-3-β-D-glucuronide",[2]; inhibitor 50 μM,29 (2) %
same,"residual metabolism (% of control), E2-17-β-D-glucuronide",[2]; inhibitor 50 μM,56 (2) %
same,"residual metabolism (% of control), E2-3-β-D-glucuronide",[2]; inhibitor 100 μM,12 (1) %
same,"residual metabolism (% of control), E2-17-β-D-glucuronide",[2]; inhibitor 100 μM,42 (7) %
same,"% of control metabolism, raloxifene G1",[3],25 (1) %
same,"% of control metabolism, raloxifene G2",[3],37 (2) %
same,"residual metabolism (% of control), 2ME2 MG1",[4]; inhibitor 25 μM,63 (3) %
same,"residual metabolism (% of control), 2ME2 MG2",[4]; inhibitor 25 μM,87 (3) %
same,"residual metabolism (% of control), 2ME2 MG1",[4]; inhibitor 50 μM,30 (4) %
same,"residual metabolism (% of control), 2ME2 MG2",[4]; inhibitor 50 μM,68 (3) %
same,"residual metabolism (% of control), 2ME2 MG1",[4]; inhibitor 100 μM,15 (0) %
same,"residual metabolism (% of control), 2ME2 MG2",[4]; inhibitor 100 μM,50 (2) %
same,"inhibition of raloxifene glucuronidation, in words",[5]; UGT1A9,good inhibitor
same,"activity at 15 min, 10 µM","[5]; formation of glucuronide G1, % of control metabolism, raloxifene G1, UGT1A9, inhibitor 10 μM",59%
same,"activity at 15 min, 25 µM","[5]; formation of glucuronide G1, % of control metabolism, raloxifene G1, UGT1A9, inhibitor 25 μM",45%
same,"activity at 15 min, 50 µM","[5]; formation of glucuronide G1, % of control metabolism, raloxifene G1, UGT1A9, inhibitor 50 μM",26%
same,"activity at 15 min, 10 µM","[5]; formation of glucuronide G2, % of control metabolism, raloxifene G2, UGT1A9, inhibitor 10 μM",56%
same,"activity at 15 min, 25 µM","[5]; formation of glucuronide G2, % of control metabolism, raloxifene G2, UGT1A9, inhibitor 25 μM",39%
same,"activity at 15 min, 50 µM","[5]; formation of glucuronide G2, % of control metabolism, raloxifene G2, UGT1A9, inhibitor 50 μM",24%
same,"Inhibition of raloxifene glucuronidation, UGT1A9, second line per inhibitor (G2)",[5]; inhibitor 5 μM,85 (5)
same,"Inhibition of raloxifene glucuronidation, UGT1A9, second line per inhibitor (G2)",[5]; inhibitor 10 μM,56 (3)
same,"Inhibition of raloxifene glucuronidation, UGT1A9, second line per inhibitor (G2)",[5]; inhibitor 25 μM,39 (2)
same,"Inhibition of raloxifene glucuronidation, UGT1A9, second line per inhibitor (G2)",[5]; inhibitor 50 μM,24 (2)
same,"inhibition of raloxifene glucuronidation, in words",[6],only a modest effect
same,"residual metabolism (percentage of control), labetalol LG1",[7]; inhibitor 50 μM,78 (4) %
same,"residual metabolism (percentage of control), labetalol LG2",[7]; inhibitor 50 μM,70 (3) %
same,"residual metabolism (percentage of control), labetalol LG1",[7]; inhibitor 100 μM,56 (8) % and 49 (7) %
same,"residual metabolism (percentage of control), labetalol LG2",[7]; inhibitor 100 μM,47 (6) % and 43 (9) %
